Source: PMC9558053, “Development of a novel high-throughput screen for the identification of new inhibitors of protein S-acylation” (The Journal of Biological Chemistry, 2022)

Target: T1, human zDHHC7 (Homo sapiens, UniProt Q9NXF8)
T1 construct: expressed in transfected cells; host or cells: HEK293T
T1 sequence (Q9NXF8 1-308): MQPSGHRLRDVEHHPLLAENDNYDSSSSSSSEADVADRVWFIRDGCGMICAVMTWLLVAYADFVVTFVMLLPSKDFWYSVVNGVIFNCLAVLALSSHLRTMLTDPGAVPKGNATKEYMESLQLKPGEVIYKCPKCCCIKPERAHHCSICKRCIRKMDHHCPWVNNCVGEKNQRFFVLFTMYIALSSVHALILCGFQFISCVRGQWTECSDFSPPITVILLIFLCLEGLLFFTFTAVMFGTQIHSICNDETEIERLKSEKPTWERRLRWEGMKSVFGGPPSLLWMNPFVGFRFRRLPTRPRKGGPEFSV
Test: PSD95-mCHERRY S-acylation in HEK293T cells co-expressing zDHHC7
Format: cell-based
Conditions: 25 μM
Excerpt: PSD95 (postsynaptic density protein 95) is a major S-acylated protein that has a critical role in the maturation of excitatory neurons and in synaptic plasticity ([46], [47]). PSD95 can be S-acylated by zDHHC2, zDHHC3, zDHHC7, and zDHHC15 ([6]). […] We therefore tested the effects of TTZ-1 and TTZ-2 on the S-acylation of PSD95 mediated by zDHHC2, zDHHC3, zDHHC7, and zDHHC15. […] In contrast, zDHHC3 and zDHHC7 activities toward PSD95 were unaffected by TTZ-1 and TTZ-2, mirroring the data obtained with GFP-SNAP25 as a substrate.
Figure 9 Activity of TTZ-1 and TTZ-2 against PSD95 S-acylation mediated by human zDHHC2, zDHHC3, zDHHC7, and zDHHC15 expressed in mammalian cells. HEK293T cells were transfected with a plasmid encoding PSD95-mCHERRY together with either a control plasmid pEF-BOS-HA (pEF) or a plasmid encoding either HA-tagged human zDHHC2 (zD2), zDHHC3 (zD3), zDHHC7 (zD7), or zDHHC15 (zD15) for 24 h. Cells were then preincubated for 4 h with TTZ-1 or TTZ-2 (25 μM final) or DMSO control before metabolic labeling with 100 μM C16:0-azide for 4 h. Cells were lysed, and proteins having incorporated C16:0-azide were labeled by click chemistry with an alkyne-IR800 dye. […] The data were quantified, and the graphs below each set of membranes show mean ± SEM of normalized S-acylation of PSD95-mCHERRY (click signal/RFP signal). […]

CCCCCCCOc1ccc(C(=O)Nc2cccc3c2OC(c2nnn[nH]2)CN3)cc1 (centres unmarked) [TTZ-1, N-(2-(1H-Tetrazol-5-yl)-3,4-dihydro-2H-benzo[b][1,4]oxazin-8-yl)-4-(heptyloxy)benzamide]
PSD95-mCHERRY S-acylation by zDHHC7: unaffected

O=C(Nc1cccc2c1OC(c1nnn[nH]1)CN2)c1ccc(OCCCCc2ccccc2)cc1 (centres unmarked) [TTZ-2, N-(2-(1H-Tetrazol-5-yl)-3,4-dihydro-2H-benzo[b][1,4]oxazin-8-yl)-4-(4-phenylbutoxy)benzamide]
PSD95-mCHERRY S-acylation by zDHHC7: unaffected
